Test results: patent US7186701B2, “Dehydrating agent and method for dehydrating moist article using the agent and dehydrated article obtained by the method” (Kabushiki Kaisha Hayashibara Seibutsu Kagaku Kenkyujo, priority 2001, dated 2007)

How the values were obtained:
[1] = system: α-isomaltosylglucosaccharide-forming enzyme; test: Specificity of transfer acceptor (C9 enzyme); type: biochemical, Bacillus globisporus C9 strain; parameters: key: −: no saccharide-transferred product was detected through transferring reaction to acceptor; ±: a saccharide-transferred product was detected in an amount of less than one percent through transfer reaction to acceptor; +: a saccharide-transferred product was detected in an amount of at least one percent but less than ten percent through transferring reaction to acceptor; ++: a saccharide-transferred product was detected in an amount of at least ten percent through transferring reaction to acceptor; details: acceptor 1.6%, PINE-DEX #100 donor 4%, one unit/g donor, 30° C., pH 6.0, 24 hours
Procedure: (§1) A variety of saccharides were tested whether they could be used as transferring-acceptors for the α-isomaltosylglucosaccharide-forming enzyme. A solution of D-glucose, D-xylose, L-xylose, D-galactose, D-fructose, D-mannose, D-arabinose, D-fucose, L-sorbose, L-rhamnose, methyl-α-glucopyranoside, methyl-β-glucopyranoside, N-acetyl-glucosamine, sorbitol, α,α-trehalose, isomaltose, isomaltotriose, cellobiose, gentibiose, maltitol, lactose, sucrose, α-cyclodextrin, β-cyclodextrin, or γ-cyclodextrin was prepared. […] The reaction mixtures after the enzymatic reactions were analyzed on gas chromatography (abbreviated as “GLC” hereinafter) for monosaccharides and disaccharides as acceptors, and on HPLC for trisaccharides and higher saccharides as acceptors to confirm whether these saccharides could be used as their transfer acceptors. In the case of performing GLC, the following apparatuses and conditions were used: […] In the case of HPLC analysis, the apparatuses and conditions used were: HPLC apparatus, “CCPD” commercialized by Tosoh Corporation, Tokyo, Japan; column, “ODS-AQ-303” commercialized by YMC Co., Ltd., Tokyo, Japan; eluent, water at a flow rate of 0.5 ml/min; and detection, a differential refractometer.

[2] = system: α-isomaltosylglucosaccharide-forming enzyme; test: Specificity of transfer acceptor (C11 enzyme); type: biochemical, Bacillus globisporus C11 strain; parameters: key: −: no saccharide-transferred product was detected through transferring reaction to acceptor; ±: a saccharide-transferred product was detected in an amount of less than one percent through transfer reaction to acceptor; +: a saccharide-transferred product was detected in an amount of at least one percent but less than ten percent through transferring reaction to acceptor; ++: a saccharide-transferred product was detected in an amount of at least ten percent through transferring reaction to acceptor; details: acceptor 1.6%, PINE-DEX #100 donor 4%, one unit/g donor, 30° C., pH 6.0, 24 hours
Procedure: as §1

SMILES	Product of saccharide transferring reaction, Enzyme of C9 strain [1]	Product of saccharide transferring reaction, Enzyme of C11 strain [2]
O=C[C@H](O)[C@@H](O)[C@H](O[C@@H]1O[C@H](CO)[C@@H](O)[C@H](O)[C@H]1O)[C@H](O)CO [Cellobiose, cellobiose]	++ (a saccharide-transferred product was detected in an amount of at least ten percent through transferring reaction to acceptor)	++ (a saccharide-transferred product was detected in an amount of at least ten percent through transferring reaction to acceptor)
O=C[C@@H](O)[C@H](O)[C@H](O)CO [D-Arabinose, D-arabinose]	± (a saccharide-transferred product was detected in an amount of less than one percent through transfer reaction to acceptor)	± (a saccharide-transferred product was detected in an amount of less than one percent through transfer reaction to acceptor)
O=C(CO)[C@@H](O)[C@H](O)[C@H](O)CO [D-Fructose, D-fructose]	+ (a saccharide-transferred product was detected in an amount of at least one percent but less than ten percent through transferring reaction to acceptor)	+ (a saccharide-transferred product was detected in an amount of at least one percent but less than ten percent through transferring reaction to acceptor)
C[C@@H](O)[C@H](O)[C@H](O)[C@@H](O)C=O [D-Fucose, D-fucose]	+ (a saccharide-transferred product was detected in an amount of at least one percent but less than ten percent through transferring reaction to acceptor)	+ (a saccharide-transferred product was detected in an amount of at least one percent but less than ten percent through transferring reaction to acceptor)
O=C[C@H](O)[C@@H](O)[C@@H](O)[C@H](O)CO [D-Galactose, D-galactose]	+ (a saccharide-transferred product was detected in an amount of at least one percent but less than ten percent through transferring reaction to acceptor)	+ (a saccharide-transferred product was detected in an amount of at least one percent but less than ten percent through transferring reaction to acceptor)
O=C[C@@H](O)[C@@H](O)[C@H](O)[C@H](O)CO [D-Mannose, D-mannose]	−	−
O=C[C@H](O)[C@@H](O)[C@H](O)CO [D-Xylose, D-xylose]	++ (a saccharide-transferred product was detected in an amount of at least ten percent through transferring reaction to acceptor)	++ (a saccharide-transferred product was detected in an amount of at least ten percent through transferring reaction to acceptor)
OC[C@H]1O[C@@H](OC[C@H]2OC(O)[C@H](O)[C@@H](O)[C@@H]2O)[C@H](O)[C@@H](O)[C@@H]1O (stereo partly drawn) [Gentibiose, gentibiose]	++ (a saccharide-transferred product was detected in an amount of at least ten percent through transferring reaction to acceptor)	++ (a saccharide-transferred product was detected in an amount of at least ten percent through transferring reaction to acceptor)
OC[C@H]1O[C@H](OC[C@H]2OC(O)[C@H](O)[C@@H](O)[C@@H]2O)[C@H](O)[C@@H](O)[C@@H]1O (stereo partly drawn) [Isomaltose, isomaltose]	++ (a saccharide-transferred product was detected in an amount of at least ten percent through transferring reaction to acceptor)	++ (a saccharide-transferred product was detected in an amount of at least ten percent through transferring reaction to acceptor)
OC[C@H]1O[C@H](OC[C@H]2O[C@H](OC[C@H]3OC(O)[C@H](O)[C@@H](O)[C@@H]3O)[C@H](O)[C@@H](O)[C@@H]2O)[C@H](O)[C@@H](O)[C@@H]1O (stereo partly drawn) [Isomaltotriose, isomaltotriose]	++ (a saccharide-transferred product was detected in an amount of at least ten percent through transferring reaction to acceptor)	++ (a saccharide-transferred product was detected in an amount of at least ten percent through transferring reaction to acceptor)
C[C@H](O)[C@H](O)[C@@H](O)[C@@H](O)C=O [L-Rhamnose, L-rhamnose]	−	−
O=C(CO)[C@@H](O)[C@H](O)[C@@H](O)CO [L-Sorbose, L-sorbose]	+ (a saccharide-transferred product was detected in an amount of at least one percent but less than ten percent through transferring reaction to acceptor)	+ (a saccharide-transferred product was detected in an amount of at least one percent but less than ten percent through transferring reaction to acceptor)
O=C[C@@H](O)[C@H](O)[C@@H](O)CO [L-Xylose, L-xylose]	++ (a saccharide-transferred product was detected in an amount of at least ten percent through transferring reaction to acceptor)	++ (a saccharide-transferred product was detected in an amount of at least ten percent through transferring reaction to acceptor)
OC[C@H]1O[C@@H](O[C@H]2[C@H](O)[C@@H](O)C(O)O[C@@H]2CO)[C@H](O)[C@@H](O)[C@H]1O (stereo partly drawn) [Lactose, lactose]	++ (a saccharide-transferred product was detected in an amount of at least ten percent through transferring reaction to acceptor)	++ (a saccharide-transferred product was detected in an amount of at least ten percent through transferring reaction to acceptor)
CO[C@H]1O[C@H](CO)[C@@H](O)[C@H](O)[C@H]1O [Methyl-α-glucopyranoside, methyl-α-glucopyranoside]	++ (a saccharide-transferred product was detected in an amount of at least ten percent through transferring reaction to acceptor)	++ (a saccharide-transferred product was detected in an amount of at least ten percent through transferring reaction to acceptor)
CO[C@@H]1O[C@H](CO)[C@@H](O)[C@H](O)[C@H]1O [Methyl-β-glucopyranoside, methyl-β-glucopyranoside]	++ (a saccharide-transferred product was detected in an amount of at least ten percent through transferring reaction to acceptor)	++ (a saccharide-transferred product was detected in an amount of at least ten percent through transferring reaction to acceptor)
CC(=O)N[C@H]1C(O)O[C@H](CO)[C@@H](O)[C@@H]1O (stereo partly drawn) [N-Acetyl-glucosamine, N-acetyl-glucosamine]	+ (a saccharide-transferred product was detected in an amount of at least one percent but less than ten percent through transferring reaction to acceptor)	+ (a saccharide-transferred product was detected in an amount of at least one percent but less than ten percent through transferring reaction to acceptor)
OC[C@@H](O)[C@@H](O)[C@H](O)[C@@H](O)CO [Sorbitol, sorbitol]	−	−
